Data taken from patent publication US20150044244A1, “COMBINED FACILITATOR, ANTIGEN AND DNA VACCINE FOR PREVENTING AND TREATING AUTOIMMUNE DISEASES” (BEIJING ADVANCCINE BIOTECHNOLOGY CO. LTD., priority 2011, published 2015).

Assays:
[1] = system: JAWS II cells; assay: Endocytosis inhibitors and CD40low phenotype in JAWS II cells; type: cell-based, mouse; details: for effect on CD40low phenotype: pretreatment before pOVA323+OVA323
Method: The JAWS II mouse DC line was purchased from the American Type Culture Collection (ATCC, Manassas, Va., USA) and maintained in complete growth medium containing minimum essential medium (MEM) alpha with ribonucleosides, deoxyribonucleosides, 4 mM L-glutamine, and 1 mM sodium pyruvate (Invitrogen Inc., Carlsbad, Calif., USA), and supplemented with 20% fetal bovine serum (ATCC) and 5 ng/ml murine recombinant GM-CSF (R&D Systems, Inc., Minneapolis, Minn., USA). The cells were incubated at 37° C. with 5% CO2 and treated with different antigens (10 μg/ml) such as pVAX, pOVA, OVA, pOVA323 and OVA323 for 24 h. For inhibitor treatment, JAWS II cells were pre-treated with filipin (10 μg/ml), MDC (50 μM) for 30 min at 37° C., respectively, or with amiloride (5 mM) for 10 min at 37° C., and washed with medium, then stimulated with antigens.
DCs take up exogenous antigens via various mechanisms including clathrin-mediated endocytosis, caveolae-mediated endocytosis, and macropinocytosis. To define which pathway(s) were involved in the co-uptake of DNA and protein immunogens, JAWS II cells were pretreated with MDC, a specific inhibitor of clathrin formation, or filipin, an inhibitor of caveolae trafficking, before being treated with pOVA323+OVA323. […] Another inhibitor, amiloride, an inhibitor for macropinocytosis, had no effect on CD40 expression (FIG. 37).

[2] = system: RAW264.7, JAWSII and DC2.4; assay: Cy5-pEGFP plasmid entry and GFP expression in APC cell lines with amiloride; type: cell-based, mouse; details: vs un-treated cells
[3] = system: Cy5+ cells in draining lymph nodes; assay: Cy5-pEGFP plasmid entry into draining lymph node cells after footpad injection; type: in vivo, C57B/6 mice; details: 4 hrs after footpad injection
Method: To explore if amiloride would overcome low transfection efficiency in vivo, Cy5-labeled pEFGP plasmid with or without amiloride was injected into hind footpads of C57B/6 mice. After 4 hrs, draining lymph nodes were collected and Cy5+ cells were analyzed by FACS analysis. The inguinal lymph nodes from the un-injected side were also collected as negative controls. […] The other ˜10% was B220+, a B cell marker. […].

[4] = system: RAW264.7, DC2.4 and JAWSII; assay: Maturation markers and innate cytokines after pcD-S2 with or without amiloride, cell lines; type: cell-based, mouse
Method: With respect to cell culture and inhibitor treatment, RAW264.7 and DC2.4 were cultured in DMEM/10% FCS, and JAWSII was cultured in DMEM/10% FCS with GMCSF (1000 U/ml, Peprotech, USA). Amiloride (Sigma-Aldrich, USA) was prepared as 10 mM solution and was diluted to 1 mM, 100 uM, 10 uM in DMEM medium before treatment. After culture medium was removed, cells were treated with amiloride, MβCD (5 mM, Sigma) or Fillipin (10 μg/ml, sigma) at 37° C. for 1 h. LPS (10 μg/ml, sigma) or 10 μg/ml DNA in DMEM was added at 37° C. for 0.5 h, after wash, culture medium was added and cells were cultured. Peritoneal macrophage was prepared from peritoneal cavity with 10 ml PBS wash, routinely with ˜50-70% F4/80 purity. Spleen dendritic cell was prepared from plate-adhesive cells and purified with Miltenyi DC purification kit (Miltenyi Biotec, Gladbach, Germany). Cells were treated and cultured 3 days for innate response.
Hepatitis B virus DNA vaccine (pcD-S2) encoding for HBsAg, which was conjugated with Cy5, was used to test whether amiloride-facilitated DNA entry into antigen presenting cells could positively affect innate immune responses.

[5] = system: CD8 T cells co-cultured with peritoneal macrophages or spleen dendritic cells; assay: APC and CD8 T cell co-culture, S208-215 restimulation; type: cell-based, mice; details: macrophages and DCs co-culture system
Method: With respect to co-cultures, pcD-S2 (10 μg/ml) with or without 100 μM amiloride treat APCs, peritoneal macrophage or spleen dendrtic cell, were cultured for 2 days. At day3, purified CD8 T cell (R&D systems, USA) was added into culture with APC:T ratio of 1:5, 1:2, 1:1. At day 8, cells were collected and restimulated with S208-215 (10 μg/ml). PMA+Ionomycin was added as positive control for restimulation.
During the co-culture, HBsAg-derived peptide S208-215 (ILSPFLPL; H-2 Kb-restricted) was used to re-stimulate. Proportions of responsive T cells were analyzed.

[6] = system: HBsAg; details: vs pcD-S2 alone; dose dependent manner
[7] = system: splenic CD4+ T cells; assay: In vitro restimulation of T cells from FSA1 sensitized mice; type: cell-based, C57BL/6 mice; details: than P66
Method: Splenic CD4^+ T cells from flea antigen immunized C57BL/6 mice were restimulated with P100 or P66 (5 ug/ml) in culture. T cell proliferation was determined by a 3-(4,5-Dimethylthiazol-2-yl)-2,5-diphenyltetrazolium bromide (MTT, a yellow tetrazole)-based assay. Concanavalin A (1 ug/ml) and BSA (1 ug/ml) were used as positive and negative controls, respectively. *, p<0.05. Shown is one of three independent experiments with similar results.
Flea allergic dermatitis is an allergic reaction to flea allergen that is mediated by CD4^+ T effector cells. To the above findings to a disease model, two antigenic epitopes from the flea allergen FSA1 were chosen, namely P66 (amino acids 66-80) (SEQ ID NO:189) and P100 (amino acids 100-114) (SEQ ID NO:188). […] This prediction was confirmed by sensitizing C57BL/6 mice (I-Ab^+) with full-length FSA1 followed by an in vitro restimulation assay using one of the epitopes.
With respect to T cell proliferation, MTT-based and CF SE-based T cell proliferation assays were performed as described before.

[8] = system: flea allergic dermatitis; assay: Prophylactic co-immunization in flea allergic dermatitis model; type: in vivo, C57BL/6 mice; details: than P66
From the text: To see whether the difference in antigenicity influences the induction of CD25^− iTreg cells by these two epitopes, C57BL/6 mice were prophylactically treated with co-immunization using the combination of DNA and protein vaccines targeting each epitope (designated as Co100 or Co66). Seven days after co-immunization, the animals were sensitized with flea saliva extracts, followed by a delayed-type hypersensitivity assay to determine to which extent the prophylactic co-immunization prevents the development of an allergic reaction.
With respect to tolerogenic immunization, Balb/c mice were injected intramuscular (i.m.) on days 0 and 14 with 100 ug each of OVA323-339 and pVAX1-OVA, MT1 and pVAX1-MT1, or MT2 and pVAX1-MT2. C57BL/6 mice were similarly injected with P100 and D100, or P66 and D66.
With respect to the intradermal test and histology, antigen-sensitized C57BL/6 mice were challenged intradermally (i.d.) with 10 ug of FSA (Greer Laboratories) on the nonlesional lateral thorax skin. PBS is used as a sham control and histamine is used as a positive control. The diameter of the skin reaction was measured within 30 min after challenge using a calibrated micrometer. Skin samples were collected within 30 min of antigen challenge, fixed in 4% paraformaldehyde, embedded in paraffin, and sectioned. […]

[9] = molecular target: T1, MHC-II (I-Ad) (Mus musculus, UniProt P01921+P04228); assay: Tetramer staining-based epitope competition assay; type: binding
T1 construct: purchased NIH Tetramer Core Facility
T1 sequence (P04228 24-218 limits assumed): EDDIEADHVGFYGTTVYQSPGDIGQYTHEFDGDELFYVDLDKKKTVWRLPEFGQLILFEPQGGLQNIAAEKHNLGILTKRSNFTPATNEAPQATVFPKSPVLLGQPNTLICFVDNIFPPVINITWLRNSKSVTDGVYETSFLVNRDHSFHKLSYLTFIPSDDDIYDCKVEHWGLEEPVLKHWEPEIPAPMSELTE
T1 sequence (P01921 28-226 limits assumed): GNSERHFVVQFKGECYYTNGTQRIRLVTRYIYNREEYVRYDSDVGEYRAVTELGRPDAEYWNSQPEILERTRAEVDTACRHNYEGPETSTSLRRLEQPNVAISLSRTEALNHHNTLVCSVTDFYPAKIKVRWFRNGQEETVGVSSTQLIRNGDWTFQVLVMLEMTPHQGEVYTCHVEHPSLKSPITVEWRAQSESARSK
Method: To further determine how antigenicity affects CD25^− iTreg induction, a set of mutated epitopes were generated from OVA323-339 (SEQ ID NO:187). Using a tetramer staining-based epitope competition assay, the affinity of each of the mutated epitopes for MHC-II was assessed. […] OVA323-339, MT1, and MT2 as probes for antigenicity studies were therefore selected.
With respect to the tetramer competition assay, PE-conjugated OVA323-339-loaded I-Ad tetramer (NIH Tetramer Core Facility) was competed with OVA323-339 or a mutant peptide by incubation of 2×10^5 DO11.10 T cells, the OVA323-339 tetramer, and a competing peptide together for 5 minutes. Five volumes of medium with 10% FCS were added to stop the competition. Cells were washed 3 times and immediately analyzed for PE-positive T cells by flow cytometer.

[10] = system: CD4+CD25− naive T cells; assay: Foxp3-GFP induction in naive T cells with anti-CD3/anti-CD28 and cytokines; type: cell-based, Foxp3gfp mouse

Molecule: CN(C)c1cccc2c(S(=O)(=O)NCCCCCN)cccc12 [MDC, monodansylcadaverine]
- effect on CD40low phenotype [1]: could prevent

Molecule: N=C(N)NC(=O)c1nc(Cl)c(N)nc1N [amiloride]
- GFP expression ([2]; 1 mM amiloride 1 h, after 3 days culture): significantly higher level of GFP
- uptake of Cy5-labeled pEGFP plasmids ([2]; pre-treated with 1 mM amiloride for 1 h, within 2 hrs): significantly taken up
- percentage of Cy5-plasmid+ cells in lymph nodes (LN) ([3]; amiloride 10 μM): increased
- percentage of Cy5-plasmid+ cells in lymph nodes (LN) ([3]; amiloride 100 μM): peaked
- percentage of Cy5-plasmid+ cells in lymph nodes (LN) ([3]; amiloride 1 mM): decreased
- expression of CD40, CD80 and CD86 ([4]; pcD-S2 plasmid with amiloride treatment): higher levels of expression of CD40, CD80 and CD86
- expression of TNF and IFN-γ ([4]; vs same cells without amiloride treatment): higher levels of expression of TNF and IFN-γ
- percentage of S208-215 specific triple positive CD8 T effectors [5]: significantly increased
- effect on CD40 expression ([1]; amiloride (5 mM) for 10 min): no effect
- levels of antibody against HBsAg [6]: increased

Molecule: CCCCC[C@@H](O)[C@H]1C(=O)O[C@H](C)[C@@H](O)/C=C/C=C/C=C/C=C/C=C(\C)[C@@H](O)C[C@H](O)C[C@H](O)C[C@H](O)C[C@H](O)C[C@H](O)C[C@@H]1O [filipin]
- relative effectiveness in preventing CD40low phenotype [1]: more effective than MDC
- effect on CD40low phenotype [1]: could prevent

Molecule: GPDWKVSKECKDPNN (Pulex irritans) [P100]
- T cell proliferation [7]: significantly more vigorous T cell proliferation
- CD25− iTreg induced [8]: induced more

Molecule: ISQAVHAAHAEINEAGR (listed as Gallus gallus) [OVA323-339]
- order of affinity for MHC-II [9]: OVA323-339>MT1>MT2=MT3

Molecule: TGF-β1: titrated rhTGF-β1 (PeproTech)
- GFP (Foxp3) expression in CD25− T cells [10]: up-regulated

B1: IL-10: rmIL10 (PeproTech) (protein, UniProt P18893 19-178, looked up)
Interleukin-10: SRGQYSREDNNCTHFPVGQSHMLLELRTAFSQVKTFFQTKDQLDNILLTDSLMQDFKGYLGCQALSEMIQFYLVEVMPQAEKHGPEIKEHLNSLGEKLKTLRMRLRRCHRFLPCENKSKAVEQVKSDFNKLQDQGVYKAMNEFDIFINCIEAYMMIKMKS
- GFP (Foxp3) expression in CD25− T cells [10]: neither alone influenced the expression of Foxp3
